Assay results: patent publication US20150353530A1 (CORTENDO AB (PUBL), priority 2013, published 2015)

Key:
Format in all cases: cell-based
[1] = molecular target: T1, recombinant CYP-17 (Homo sapiens, UniProt P05093); test: Cyp17 assay: AD293 cells over-expressing recombinant CYP-17, 3H-acetic acid release from [21-3H] 17α-hydroxyl-Pregnenolone; settings: for IC50: AD293 cells, eight concentrations 10 μM to 4.5 nM
T1 construct: expressed in transfected cells
T1 sequence (P05093 1-508): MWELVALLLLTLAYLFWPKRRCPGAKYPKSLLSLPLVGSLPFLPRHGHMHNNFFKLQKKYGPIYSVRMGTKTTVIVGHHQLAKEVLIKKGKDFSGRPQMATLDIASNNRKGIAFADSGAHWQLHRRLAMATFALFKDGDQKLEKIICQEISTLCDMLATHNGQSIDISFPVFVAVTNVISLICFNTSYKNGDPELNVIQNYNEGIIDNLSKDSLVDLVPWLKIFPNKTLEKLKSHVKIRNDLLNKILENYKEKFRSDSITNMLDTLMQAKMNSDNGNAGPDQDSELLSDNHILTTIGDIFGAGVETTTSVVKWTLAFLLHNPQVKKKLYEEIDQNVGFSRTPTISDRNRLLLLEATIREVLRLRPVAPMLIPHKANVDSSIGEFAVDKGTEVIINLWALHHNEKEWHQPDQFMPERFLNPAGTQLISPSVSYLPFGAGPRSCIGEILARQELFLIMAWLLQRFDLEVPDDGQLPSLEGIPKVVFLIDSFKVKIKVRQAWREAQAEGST
Procedure: Cyp17 assay protocol: AD293 cells that stably over-express recombinant CYP-17 were seeded in 96 well plates coated with poly D-lysine (15,000 cell per well) and incubated at 37° C. for 24 hours in Dulbecco's Modified Eagle Medium (DMEM) with Fetal Bovine Serum (FBS) that is stripped of hormones by charcoal treatment. The media is then removed, the cells are washed once with Phosphate buffer saline solution, and 50 μL Dulbecco's Modified Eagle Medium (DMEM) with Fetal Bovine Serum (FBS) that is stripped of hormones by charcoal treatment is added. Compounds of the disclosure are then added to the wells in eight concentration spanning 10 μM to 4.5 nM, and the plates are incubated for an additional 60 minutes at 37° C. [21-^3H] […] The media is then collected, 200 μL of chloroform is added, and the mixture is shaken for 1 hour. The aqueous layer is then separated and analyzed for the presence of ^3H-acetic acid using a Perkin Elmer Topcount NXT to determine IC50s of the compounds of the disclosure.

[2] = molecular target: T2, recombinant CYP-11 (Homo sapiens, UniProt P15538); test: Cyp11 assay: AD293 cells over-expressing recombinant CYP-11, cortisol formation from 11-deoxycortisol by LC/MS; settings: eight concentrations 10 μM to 4.5 nM
T2 construct: expressed in transfected cells
T2 sequence (P15538 25-503): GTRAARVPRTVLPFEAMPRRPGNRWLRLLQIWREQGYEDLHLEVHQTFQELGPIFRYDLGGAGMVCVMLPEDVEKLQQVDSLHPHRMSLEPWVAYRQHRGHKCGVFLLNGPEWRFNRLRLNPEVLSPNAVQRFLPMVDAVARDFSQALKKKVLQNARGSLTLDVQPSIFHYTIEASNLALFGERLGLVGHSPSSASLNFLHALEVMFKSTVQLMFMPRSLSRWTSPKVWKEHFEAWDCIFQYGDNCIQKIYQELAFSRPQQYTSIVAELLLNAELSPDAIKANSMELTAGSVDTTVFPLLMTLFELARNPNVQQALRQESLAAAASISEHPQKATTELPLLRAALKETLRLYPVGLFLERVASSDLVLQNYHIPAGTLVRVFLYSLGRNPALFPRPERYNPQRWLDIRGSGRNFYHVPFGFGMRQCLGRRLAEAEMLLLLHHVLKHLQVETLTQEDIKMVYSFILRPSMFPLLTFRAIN
Procedure: (§1) AD293 cells that stably over-express recombinant CYP-11 were seeded in 96 well plates coated with poly D-lysine (15,000 cell per well) and incubated at 37° C. for 24 hours in Dulbecco's Modified Eagle Medium (DMEM) with Fetal Bovine Serum (FBS) that is stripped of hormones by charcoal treatment. The media is then removed, the cells are washed once with Phosphate buffer saline solution, and 50 μL Dulbecco's Modified Eagle Medium (DMEM) with Fetal Bovine Serum (FBS) that is stripped of hormones by charcoal treatment is added. Compounds of the disclosure are then added to the wells in eight concentration spanning 10 μM to 4.5 nM, and the plates are incubated for an additional 60 minutes at 37° C. 11-deoxycortisol is then added (2.0 μM) and the plates are incubated for an additional 12 hours at 37° C. After incubation, 50 uL of the supernatant (medium) is transferred into a fresh plate and 150 uL of an acetonitrile solution containing 200 ng/ml of Telmisartan is added. The sample is mixed and then placed in a centrifuge at 2000 rpm for 5 minutes.

[3] = molecular target: T3, recombinant CYP-21 (Homo sapiens, UniProt P08686); test: Cyp21 assay: AD293 cells over-expressing recombinant CYP-21, 11-deoxycortisol formation from 17α-OH Progesterone by LC/MS; settings: eight concentrations 10 μM to 4.5 nM
T3 construct: expressed in transfected cells
T3 sequence (P08686 1-495): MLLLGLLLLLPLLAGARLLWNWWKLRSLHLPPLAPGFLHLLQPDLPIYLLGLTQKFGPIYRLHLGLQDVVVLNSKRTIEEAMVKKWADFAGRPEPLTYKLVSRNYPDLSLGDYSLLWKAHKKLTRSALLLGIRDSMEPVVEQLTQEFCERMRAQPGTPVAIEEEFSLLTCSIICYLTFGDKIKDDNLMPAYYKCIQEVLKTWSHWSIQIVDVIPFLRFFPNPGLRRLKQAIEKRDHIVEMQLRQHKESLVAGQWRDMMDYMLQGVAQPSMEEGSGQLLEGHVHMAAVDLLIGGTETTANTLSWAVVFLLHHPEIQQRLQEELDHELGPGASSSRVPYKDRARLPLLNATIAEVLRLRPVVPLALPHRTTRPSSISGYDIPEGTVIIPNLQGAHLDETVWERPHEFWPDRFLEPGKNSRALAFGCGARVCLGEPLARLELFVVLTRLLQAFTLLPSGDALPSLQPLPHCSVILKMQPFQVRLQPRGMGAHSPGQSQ
Procedure: as §1, with “Cyp21 assay protocol: AD293” for “AD293”, “CYP-21” for “CYP-11”, “(10,000” for “(15,000”, “17α-OH Progesterone” for “11-deoxycortisol”, “(1.0” for “(2.0”, “45 minutes” for “12 hours”

| Structure (SMILES) | IC50 [1] | IC50 [2] | IC50 [3] | inhibition at 0.1 µM ([1]; AD293, 4 h, read-out: Cyp17 % @ 0.1 μM (printed in the Cyp17 IC50 column)) |
| --- | --- | --- | --- | --- |
| COCCOC(=O)N1CCN(c2ccc(OC[C@@H]3CO[C@@](Cn4ccnc4)(c4ccc(Cl)cc4Cl)O3)cc2)CC1 (racemic) [Entry 2] | 100 nM | 100 nM | 230 nM |  |
| COC(=O)[C@H](Cc1ccccc1)NC(=O)N1CCN(c2ccc(OC[C@H]3CO[C@](Cn4ccnc4)(c4ccc(Cl)cc4Cl)O3)cc2)CC1 [Entry 19] | 250 nM | 240 nM | 740 nM |  |
| O=S(=O)(CC(F)(F)F)N1CCN(c2ccc(OC[C@@H]3CO[C@@](Cn4ccnc4)(c4ccc(Cl)cc4Cl)O3)cc2)CC1 [Entry 20] | 610 nM | 70 nM | 78 nM |  |
| COC(=O)N1CCN(c2ccc(OC[C@@H]3CO[C@@](Cn4ccnc4)(c4ccc(Cl)cc4Cl)O3)cc2)CC1 (racemic) [Entry 1] |  | 100 nM | 160 nM | 83% |
| CN(C)C(=O)N1CCN(c2ccc(OC[C@@H]3CO[C@@](Cn4ccnc4)(c4ccc(Cl)cc4Cl)O3)cc2)CC1 (racemic) [Entry 3] | 100 nM | 100 nM |  |  |
| N=C(N)N1CCN(c2ccc(OC[C@@H]3CO[C@@](Cn4ccnc4)(c4ccc(Cl)cc4Cl)O3)cc2)CC1 [Entry 33] | 340 nM | 1900 nM | 10000 nM |  |
| COC(=O)[C@@H](NC(=O)N1CCN(c2ccc(OC[C@@H]3CO[C@@](Cn4ccnc4)(c4ccc(Cl)cc4Cl)O3)cc2)CC1)C(C)C [Entry 16] | 10 nM | 100 nM | 244 nM |  |
| CCOC(=O)CNC(=O)N1CCN(c2ccc(OC[C@H]3CO[C@](Cn4ccnc4)(c4ccc(Cl)cc4Cl)O3)cc2)CC1 [Entry 15] | 310 nM | 530 nM | 2460 nM |  |
| Clc1ccc([C@]2(Cn3ccnc3)OC[C@@H](COc3ccc(N4CCN(C5=NCCO5)CC4)cc3)O2)c(Cl)c1 (racemic) [Entry 34] | 30 nM | 148 nM | 423 nM |  |
| O=S(=O)(CCC(F)(F)F)N1CCN(c2ccc(OC[C@@H]3CO[C@@](Cn4ccnc4)(c4ccc(Cl)cc4Cl)O3)cc2)CC1 [Entry 27] | 240 nM | 10000 nM | 373 nM |  |
| O=S(=O)(CC(F)F)N1CCN(c2ccc(OC[C@@H]3CO[C@@](Cn4ccnc4)(c4ccc(Cl)cc4Cl)O3)cc2)CC1 [Entry 29] | 11 nM | 280 nM | 80 nM |  |
| COC(=O)[C@@H](NC(=O)N1CCN(c2ccc(OC[C@H]3CO[C@](Cn4ccnc4)(c4ccc(Cl)cc4Cl)O3)cc2)CC1)C(C)C [Entry 18] | 137 nM | 110 nM | 720 nM |  |

The remaining lines, values ahead:

| IC50 [1] | IC50 [2] | IC50 [3] | inhibition at 0.1 µM ([1]; AD293, 4 h, read-out: Cyp17 % @ 0.1 μM (printed in the Cyp17 IC50 column)) | Structure (SMILES) |
| --- | --- | --- | --- | --- |
| 35 nM | 52 nM | 690 nM |  | CCNC(=O)N1CCN(c2ccc(OC[C@@H]3CO[C@@](Cn4ccnc4)(c4ccc(Cl)cc4Cl)O3)cc2)CC1 [Entry 12] |
| 25 nM | 66 nM | 710 nM |  | CCOC(=O)CNC(=O)N1CCN(c2ccc(OC[C@@H]3CO[C@@](Cn4ccnc4)(c4ccc(Cl)cc4Cl)O3)cc2)CC1 [Entry 13] |
| 43 nM | 100 nM | 360 nM |  | COC(=O)[C@H](Cc1ccccc1)NC(=O)N1CCN(c2ccc(OC[C@@H]3CO[C@@](Cn4ccnc4)(c4ccc(Cl)cc4Cl)O3)cc2)CC1 [Entry 17] |
| 8 nM | 91 nM | 128 nM |  | CCCS(=O)(=O)N1CCN(c2ccc(OC[C@@H]3CO[C@@](Cn4ccnc4)(c4ccc(Cl)cc4Cl)O3)cc2)CC1 [Entry 22] |
| 43 nM | 500 nM |  |  | CCNC(=O)N1CCN(c2ccc(OC[C@H]3CO[C@](Cn4ccnc4)(c4ccc(Cl)cc4Cl)O3)cc2)CC1 [Entry 14] |
| 45 nM | 388 nM | 249 nM |  | CC(C)CS(=O)(=O)N1CCN(c2ccc(OC[C@@H]3CO[C@@](Cn4ccnc4)(c4ccc(Cl)cc4Cl)O3)cc2)CC1 [Entry 23] |
